Laboratory results reported in patent publication US6589766B1, “Aldol consensations by catalytic antibodies” (The Scripps Research Institute, priority 1997, dated 2003).

Key:
[1] = tested on: aldolase antibodies 38C2 and 33F12; assay: inhibition of antibody aldolase activity by β-diketones; format: biochemical
Procedure: For ease of comparison we determined specific rates for these reactions under the following defined conditions: 1 M of donor, 500 mM of aldehyde 4 and 0.4 mol-% of antibody . […] A large variety of other ketones were also studied with aldehyde 4 with monitoring of the consumption of 4 and appearance of a new peak tentatively assigned as the β-hydroxyketone product. The antibody catalyzed aldol reactions were inhibited by addition of equimolar amounts of the hapten 1 or 2,4-pentanedione. Further control experiments were carried out using lysine or bovine serum albumin instead of the antibodies. […] Further study of mixed solvent systems may allow conditions to be defined where substrates such as these are accepted by the catalyst. Of the ketones studied, reactions involving hydroxyacetone as the donor were the most efficient.
No background reaction for the overall conversion of cyclopentanone to 35 in the absence of antibody could be observed following extended incubation for 2 months.
The reaction of 3-methyl-2,4-pentanedione was monitored spectrophotometrically by following the absorption of the antibody-enamine complex 3 now at 335 nm. […] Study of the dependence of the rate of enamine formation on pH with 2,4-pentanedione yielded the same pKa.

[2] = cited from earlier work; for pKa of the amino group: free in aqueous solution / water
[3] = control aldol reactions using lysine or bovine serum albumin instead of the antibodies; format: biochemical; settings: used instead of the antibodies
Procedure: For ease of comparison we determined specific rates for these reactions under the following defined conditions: 1 M of donor, 500 mM of aldehyde 4 and 0.4 mol-% of antibody .

[4] = amine catalyzed retro-aldolization of 59 in aqueous buffer and n-octanol; format: biochemical
Excerpt: Therefore the second order rate constants for n-butylamine and aminoacetonitrile catalyzed retro-aldolization of 59 where determined in aqueous buffer and n-octanol. […] The pka's of n-butylamine and aminoacetonitrile in water are 10.61 and 5.34 (Hupe, D. J.; Kendall, M. C. R.; Spencer, T. A. J. Am. Chem. Soc. 1972, 94, 1254). […] Antibody 38C2 provides a 106-108 fold enhancement of the efficiency of the retro-aldol reaction of 59 as compared to the non-enzymic amine catalyzed reactions in either aqueous or organic media. […] The effectiveness of the active site amine of 38C2 is also indicated by effective molarities between 560 and 35,000 M depending on the amine and solvent system studied.
The activation energy for this reaction should be […] in nonpolar solvents such as the active site of the antibody and n-octanol since the reaction involves charge dispersal in the transition state. A polar medium would be expected to stabilize the cationic iminium intermediates to a greater extent than the activated complex. (Reichardt, C., in Solvents and Solvents Effects in Organic Chemistry Ebel, H. F., Wentrup-Byne, E., Eds.; New York, N.Y., 1990, 2nd eddition, pp1-511; Heathcock, C. H. Stereoselective Aldol Condensations, in E. Buncel and T. Durst (eds): Comprehensive Carbanion Chemistry. Part B, P. 177ff. (particularly p. 198), Elsevier, Amsterdam 1984).

Compound	pKa of the protons at the 3 position [2]	pKa of the amino group [2]	catalysis of the aldol reactions [3]	further results
CC(=O)CC(C)=O [2,4-pentanedione]	8.87	–	–	inhibition of ab 38C2 catalyzed elimination ([1]; elimination from 36 to 35): inhibited; inhibition of antibody catalyzed aldol reactions ([1]; equimolar amounts): inhibited
CC(=O)C(C)C(C)=O [3-methyl-2,4-pentanedione]	10.65	–	–	inhibition of aldolase activity ([1]; stoichiometric reaction forming stable vinylogous amides): completely inhibiting aldolase activity
N#CCN [aminoacetonitrile]	–	5.34	–	–
NCCCC[C@H](N)C(=O)O [lysine]	–	around 10.5	No catalysis	–
CCCCN [n-butylamine]	–	10.61	–	catalysis in n-octanol compared to catalysis in aqueous solution [4]: 63 fold
bovine serum albumin: control protein used instead of the antibodies	–	–	No catalysis	–
